Experiments:
[1] = tested on: COS cells stably transfected with tNOX cDNA; assay: Growth inhibition of COS cells transfected with tNOX cDNA; type: cell-based, African monkey; conditions: for EC50: Primates, COS cells stably transfected with tNOX cDNA, growth inhibition; for change of growth response (susceptibility) by tNOX cDNA transfection: tNOX cDNA-transfected vs control COS cells
Excerpt: Transient transfection of COS cells were with pcDNA3.1 (Invitrogen) and a Calcium Phosphate Transfection Kit (Invitrogen, Carlsbad, Calif.) according to the manufacturer's protocol. ttNOX cDNA was first amplified by PCR using primers 5═-[…]-3′ (forward; SEQ ID NO: 12) and 5′-[…]-3′ (reverse, SEQ ID NO: 13). The PCR product was then amplified using primers 5′-[…]-3′ (forward, SEQ ID NO: 14) and 5′-[…]-3′ (reverse, SEQ ID NO: 15) to construct a HindIII site at 5′ end of the nontemplate strand. The product was double digested using HindIII and BamHI enzymes. The digested products were separated on an agarose gel and extracted using a DNA Extraction Kit (Qiagen, Valencia, Calif.). The DNA was then ligated into a pcDNA3.1 vector that contains a cytomegalovirus enhancer-promoter for high levels of expression. For propagation of the plasmid DNA, the ligation product was used to transform XL-1 blue competent cells using heat pulse technique (Sambrook et al., 1989, supra). The positive clones were identified by PCR. The resulting plasmid was then used to transfect COS cells.
(§1) COS-1 cells (African monkey kidney cell line), were plated one day prior to transfection at 4×10^5 cells per 100-mm dish. Thirty-six μl of 2 M CaCl2 and 30 μg of pcDNA3.1 or pcDNA3.1-tNOX in 300 μl sterile H2O were slowly added dropwise into 300 μl of 2× Hepes Buffered Saline (HBS) at room temperature for 30 min. The transfection mixtures then were added dropwise to the media to the cells and incubated overnight at 37C. After overnight exposure to the DNA precipitate, the cells were washed twice with PBS and 3 ml of DMSO were added for 2.5 min. The DMSO then was removed and cells were fed with fresh media for 2-3 days. tNOX expression was evaluated on the basis of enzymatic activity and Western blot analysis. For selection of stable transfectants, antibiotic G418 sulfate was used (Invitrogen, Carlsbad, Calif.). After the COS cells were transfected with the tNOX cDNA expression plasmid, 0.5 mg/ml of G418 sulfate was added into the media twice a week and the cultures were maintained until colonies 2 to 3 mm in diameter were formed. A total of three colonies were selected and trypsinized individually and then transferred into wells of a 24-well plate and then into a 35 mm petri dish. Cells were harvested at 80% confluency. Transfections were confirmed by immunoblotting.

COS cells = assay: Growth inhibition of control COS cells (nontransfected / vector alone); type: cell-based, African monkey; conditions: for EC50: Primates, nontransfected COS cells, growth inhibition
Procedure: as §1

ttNOX (truncated tNOX) = target: T1, ttNOX (truncated tNOX) (Homo sapiens, UniProt Q16206); assay: NADH oxidase activity of ttNOX expressed in E. coli (induced bacterial extract); type: biochemical
T1 construct: made in house; host or cells: E. coli BL21 (DE3), vector pET-11b; crude induced bacterial extract
T1 sequence (Q16206 220-610): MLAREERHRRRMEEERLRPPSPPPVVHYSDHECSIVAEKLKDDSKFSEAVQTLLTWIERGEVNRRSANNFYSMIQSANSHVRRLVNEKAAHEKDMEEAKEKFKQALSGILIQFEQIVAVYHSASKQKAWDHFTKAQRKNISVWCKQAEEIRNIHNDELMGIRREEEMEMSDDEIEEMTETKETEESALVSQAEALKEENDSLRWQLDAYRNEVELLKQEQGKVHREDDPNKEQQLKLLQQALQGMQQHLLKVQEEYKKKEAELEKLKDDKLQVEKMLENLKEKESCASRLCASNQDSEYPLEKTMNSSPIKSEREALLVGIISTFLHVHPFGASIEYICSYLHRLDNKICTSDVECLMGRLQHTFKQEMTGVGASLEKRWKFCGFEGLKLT
Excerpt: tNOX cDNA from clone 1 was expressed in E. coli either as a truncated form (ttNOX) (beginning at M220), as a fusion protein with six histidine residues (ttNOX-his) fused to the amino terminus of ttNOX, or as a processed tNOX (beginning at G327). First, the open reading frame of ttNOX DNA and nucleotides of 3′-untranslated region were amplified by PCR, digested with NdeI and BamHI followed by ligation into the protein expression vector pET-11b. All primers were synthesized by the Laboratory for Macromolecular Structure (Purdue University, IN). Primers for PCR amplification of ttNOX were 5′-[…]-3′ (forward, SEQ ID NO: 6) and 5′[…]-3′ (reverse, SEQ ID NO: 7). Primers for processed form of tNOX were 5′-[…]-3′ (forward, SEQ ID NO: 8) and 5′-[…]-3′ (reverse, SEQ ID NO: 9). Primers for histidine-tagged ttNOX were 5′-[…]-3′ (forward, SEQ ID NO: 10) and 5′-[…]-3′ (reverse, SEQ ID NO: 11). The forward primer was designed to incorporate six histidine residues to the amino terminus of tNOX protein. The amplification performed was with an initiation step of 94C. for 90 sec, followed by 90 sec of denaturation at 94C., 90 sec of annealing at 55C., and 90 sec of extension at 72C. for 29 cycles.
E. coli [BL21 (DE3)] were transfected and grown in LB medium containing ampicillin (100 μg/ml) for 16 hr at 25C. and harvested. DNA sequences of the ligation products were confirmed by DNA sequencing. Expressions of all forms of tNOX were confirmed by SDS-PAGE with silver staining and immunoblotting. Immunoblot analysis was with anti-tNOX monoclonal antibody. Detection used alkaline […] conjugated anti-mouse antibody.

[2] = tested on: plasma membranes prepared from HeLa cells; conditions: cited from earlier work
tNOX = target: T2, tNOX (Homo sapiens, UniProt Q16206); conditions: cited from earlier work
T2 sequence (Q16206 1-610): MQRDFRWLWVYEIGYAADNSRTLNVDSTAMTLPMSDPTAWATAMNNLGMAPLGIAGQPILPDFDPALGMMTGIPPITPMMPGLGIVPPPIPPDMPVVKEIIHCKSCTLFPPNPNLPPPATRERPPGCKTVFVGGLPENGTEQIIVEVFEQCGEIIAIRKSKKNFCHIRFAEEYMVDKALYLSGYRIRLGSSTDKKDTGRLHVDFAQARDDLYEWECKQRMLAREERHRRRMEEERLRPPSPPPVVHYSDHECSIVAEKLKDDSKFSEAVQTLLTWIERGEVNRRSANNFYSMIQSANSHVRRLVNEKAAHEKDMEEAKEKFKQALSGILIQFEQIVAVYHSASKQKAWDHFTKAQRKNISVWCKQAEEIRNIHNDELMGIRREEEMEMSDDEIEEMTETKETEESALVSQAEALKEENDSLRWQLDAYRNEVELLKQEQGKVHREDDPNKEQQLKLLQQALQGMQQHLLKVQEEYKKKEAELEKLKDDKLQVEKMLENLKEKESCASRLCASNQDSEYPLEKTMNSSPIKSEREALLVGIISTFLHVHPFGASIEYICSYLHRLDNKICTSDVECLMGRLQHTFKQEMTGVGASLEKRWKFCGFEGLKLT

CNOX = conditions: cited from earlier work

Row | Compound | EC50 [1] [µM] | EC50 (COS cells) [µM] | change of growth response (susceptibility) by tNOX cDNA transfection [1] | also measured
1 | COc1cccc2c1C(=O)c1c(O)c3c(c(O)c1C2=O)C[C@@](O)(C(=O)CO)C[C@@H]3O[C@H]1C[C@H](N)[C@H](O)[C@H](C)O1 [Adriamycin, adriamycin] | 0.04 | 0.3 | – | –
2 | COc1cc(CNC(=O)CCCC/C=C/C(C)C)ccc1O [Capsaicin, 8-methyl-N-vanillyl-6-noneamide] | 1.3 | 13 | more susceptible | inhibition of the activity of the bacterially expressed protein (ttNOX (truncated tNOX)): complete; periodic NADH oxidase activity of induced bacterial extracts (ttNOX (truncated tNOX); in the presence of 1 or 100 μM capsaicin): no periodic activity
3 | Cc1ccc(S(=O)(=O)NC(=O)Nc2ccc(Cl)cc2)cc1 [LY181984, N-(4-methylphenylsulfonyl)-N′-(4-chlorophenyl)urea] | 3 | 20 | – | inhibition of NADH oxidase activity of induced bacterial extract (ttNOX (truncated tNOX); 1 μM): completely inhibited; oxygen uptake by HeLa plasma membranes [2]: inhibited
4 | Cc1ccc(S(=O)(=O)NC(=O)Nc2ccccc2)cc1 [LY181985, N-(4-methylphenylsulfonyl)-N′-(4-phenyl)urea] | – | – | – | growth inhibition ([1]; cells transfected with tNOX cDNA): did not inhibit; growth inhibition (COS cells; control cells transfected with vector alone): did not inhibit
5 | CN(Cc1cnc2nc(N)nc(N)c2n1)c1ccc(C(=O)N[C@@H](CCC(=O)O)C(=O)O)cc1 [Methotrexate, methotrexate] | 1 | 1 | unaffected | –
6 | (−)-epigallocatechin gallate [EGCg] | – | – | more susceptible | effect on activity of tNOX (tNOX): inhibits; effect on constitutive CNOX (CNOX): largely without effect

Reference: patent US20030207340A1, “Sequences encoding human neoplastic marker” (priority 2002, published 2003)
